Test results reported in US4431652A, “4-Hydroxy-5-substituted-3(2H)-isothiazolone-1,1-dioxide derivatives useful in treating urinary tract calcium oxalate lithiasis” (Merck & Co., Inc., priority 1980, dated 1984).

Biological target: T1, pig liver glycolate oxidase (Sus scrofa, UniProt I3LVF1)
T1 construct: The enzyme was pig liver glycolate oxidase; from tissue; host or cells: pig liver
T1 sequence (I3LVF1 1-370): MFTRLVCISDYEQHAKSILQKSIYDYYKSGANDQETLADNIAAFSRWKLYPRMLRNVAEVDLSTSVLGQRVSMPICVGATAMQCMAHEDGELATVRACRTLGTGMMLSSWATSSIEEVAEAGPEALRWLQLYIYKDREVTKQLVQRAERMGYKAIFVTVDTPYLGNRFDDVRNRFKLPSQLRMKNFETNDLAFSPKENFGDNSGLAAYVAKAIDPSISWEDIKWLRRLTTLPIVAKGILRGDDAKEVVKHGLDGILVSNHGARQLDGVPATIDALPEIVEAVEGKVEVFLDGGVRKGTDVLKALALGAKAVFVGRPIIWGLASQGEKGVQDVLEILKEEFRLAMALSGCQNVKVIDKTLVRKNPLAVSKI
Assay: Glycolate oxidase enzyme inhibition (rate of reduction of sodium 2,6-dichlorophenol-indophenol by sodium glycolate, 600 nm)
Format: biochemical
Conditions: 25° C., 0.10 M phosphate buffer, pH 7.0, 3 mM EDTA, 2×10^-4 M sodium glycolate, 5×10^-5 M sodium 2,6-dichlorophenol-indophenol, initial rates 1 to 3 min
Procedure: The usefulness of the compounds of the present invention in treating urinary tract, especially renal, calcium oxalate lithiasis, was shown by the ability of these compounds to inhibit the glycolate oxidase enzyme. […] The activity of the enzyme, in turn, was measured by following the rate of reduction of sodium 2,6-dichlorophenol-indophenol by sodium glycolate in the presence of the enzyme. The enzyme was pig liver glycolate oxidase. The reaction was following spectrophotometrically at 600 nm. The assay was conducted at 25° C. in a 0.10 M phosphate buffer, pH 7.0, contining 3 mM EDTA. Initial substrate concentrations were 5×10^-5 M of sodium 2,6-dichlorophenol-indophenol and 2×10^-4 M of sodium glycolate. Reactions were initiated by the addition of enzyme. Initial rates during the period from 1 to 3 min. after the addition of enzyme were recorded on a Beckman Acta M-VI spectrophotometer. One control was run simultaneously with three test reactions, and all initial rates were adjusted to a common control rate. For further details of this procedure, see Randall et al., J. Med. Chem., 22, 6, 612 (1979).

IC50 [nM]	SMILES
110	O=C1NS(=O)(=O)C(c2csc(-c3ccc(Cl)c(Cl)c3)n2)=C1O [5-[2-(3,4-Dichlorophenyl)thiazol-4-yl]-4-hydroxy-3(2H)-isothiazolone-1,1-dioxide]
600	O=C1NS(=O)(=O)C(c2nc(-c3ccc(Cl)c(Cl)c3)cs2)=C1O [5-[4-(3,4-Dichlorophenyl)thiazol-2-yl]-4-hydroxy-3(2H)-isothiazolone-1,1-dioxide]
